# Measurements published in patent US7087588B2, “Nitric oxide donors capable of reducing toxicity from drugs” (Nicox S.A., priority 1996, dated 2006).
# Marks after values point to notes of the source that are not given here.
# Assays:
# [1] = Renal functionality and gastrointestinal tolerability in hypertensive rats after diclofenac, with or without DON-NO; format: in vivo, Sprague-Dawley male rats; settings: spontaneously hypertensive rats, diclofenac 12 mg/kg i.p. daily, 5 days; nitroglycerin 3 mg/kg s.c.; vehicle = 100
# guinea pigs = test: Capsaicin induced bronchoconstriction in enalapril-treated guinea pigs; format: in vivo, guinea pig; settings: enalapril 10 mg/kg and/or NO-naproxen 10 mg/kg intraduodenally, capsaicin 1 μg/kg i.v. 45 minutes later, vehicle = 100
# Protocol: Capsaicin-induced bronchoconstriction in guinea pigs is an animal model related to the ability of angiotensin-converting-enzyme inhibitors to provoke cough in patients (Subissi et al, J. Cardiovasc. Pharmacol. 20/1, 139–146, 1992).
# Experimental conditions were as previously described by Del Soldato et al (J. Pharmacological Methods 5, 279, 1981). Female guinea pigs weighing 300–400 g were anesthetized through intraperitoneal injection of sodiun 5,5 diethylbarbiturate (200 mg/kg) and kept under artificial respiration at constant positive pressure. Jugular right vein was incannuled for the administration of the compounds. Animals received intraduodenally enalapril (10 mg/kg), vehicle (carboxymethyl cellulose 2% by weight) and/or NO-naproxen (10 mg/kg). Forty-five minutes later, it was injected intravenously 0.1 ml capsaicin (1 μg/kg). Before and after capsaicin injection, tidal air changes were measured by means of modified Konzett apparatus connected to a polygraph amplifier.
# Results were calculated as ratio of the responses obtained before and after the administration of each treatment, expressed as % of the vehicle (control) response and shown in Table 7.
# [2] = system: Cells of the human umbilical vein; test: Nitric oxide generation by chemiluminescence, endothelial cells (method a); format: cell-based; settings: incubation of 100 μmoles of NO donor, 5 minutes
# Protocol: In particular the test relates to the generation of nitric oxide from the NO donors of the present invention, among which, for instance, nitroglycerine, nicorandil, nitro-prussiate, etc., when they are put in the presence of endothelial cells (method a), or platelets (method b). Cells of the human umbilical vein, spread on the plate, with density of 10^3 cells/plate were incubated with scalar concentrations of NO donor (1–100 μg/ml) for 5 minutes. The incubation medium (physiologic solvent, for instance Tyrode) was then analyzed to determine the capacity to generate NO, by means of: • 1) the determination of nitric oxide by chemiluminescence; • 2) the cGMP determination (cyclic GMP No. 2715 of the above mentioned Merck). […] The nitrites/nitrates present in the medium in these conditions are converted into NO which is then determined after its reaction with ozone, with consequent generation of light. As it usually occurs in the devices measuring chemiluminescence, the produced luminescence is directly proportional to the NO levels generated and can be measured by the suitable photomultiplier unit of a chemiluminescence analyser. The photomultiplier converts the incident light into electric voltage, which is then quantitatively recorded. […]
# Washed human platelets = test: Nitric oxide generation by chemiluminescence, platelets (method b); format: cell-based; settings: incubation of 100 μmoles of NO donor, 5 minutes
# Protocol: Washed human platelets, prepared analogously with what described by Radomski et al, (Br. J. Pharmacol. 92, 639–1987), were utilized. Aliquots of 0.4 ml were incubated with scalar concentrations of NO donors (1–100 μg/ml) for 5 minutes. The incubation medium (f.i. Tyrode) was then analysed to determine the capacity of generating NO, by determination of nitric oxide by chemiluminiscence and cGMP, with the modalities described in the previous paragraph, for the analyses carried out on the endothelial cells. As to the determination by chemiluminescence, also in this case, on the basis of a calibration curve, prepared with scalar concentrations of nitrite, it was possible to determine quantitatively the concentration of generated NO. For instance, after incubation of 100 μmoles of nicorandil, an amount equal to 35 μmoles of NO was generated.
# rats = test: Tolerance to nitroglycerin after repeated subcutaneous administration in rats; format: in vivo, rat; settings: nitroglycerin given with enalapril, repeated subcutaneous administration 1 mg/kg per day
compound,measurement,setting,value
"O=C(O)Cc1ccccc1Nc1c(Cl)cccc1Cl [DICLOFENAC, diclofenac]","BLOOD CREATININE, percent variation with respect to the control values",[1],287* PERCENT
CCOC(=O)[C@H](CCc1ccccc1)N[C@@H](C)C(=O)N1CCC[C@H]1C(=O)O [enalapril],"BRONCHOCONSTRICTION (%), % of the vehicle (control) response",guinea pigs,290%
"O=C(NCCO[N+](=O)[O-])c1cccnc1 [nicorandil, N-[2-(nitrooxy)ethyl]-3-pyridine-carboxamide]",amount of NO generated,[2],about 10 μmoles
same,amount of NO generated,Washed human platelets,35 µmol
"O=[N+]([O-])OCC(CO[N+](=O)[O-])O[N+](=O)[O-] [nitroglycerin, 1,2,3 propanetriol trinitrate]",tolerance after repeated administration,rats,did not cause any tolerance
